Measurements from ChEMBL document CHEMBL1128057, “Aryl-fused sphingolipids as novel PKC inhibitors with topical antiinflammatory activity” (Bioorg Med Chem Lett, 1995).

Columns and labels:
Protein kinase C (PKC) [1] = experiment: Inhibitory concentration required against Protein kinase C (isolated from rat brain) in PKC assay performed with 4 ug phosphatidyl serine:diacylglycerol (2:1)
Mus musculus = species on record: Mus musculus; experiment: Anti-inflammatory activity on the mice ears using antiinflammatory assay (TPAEE); assay type: functional
Protein kinase C (PKC) [2] = experiment: Inhibition of Protein kinase C of rat brain using phosphatidyl serine: di-acyl glycerol (2:1)

| SMILES | IC50 (Protein kinase C (PKC) [1]) | IC50 (Protein kinase C (PKC) [2]) | ED50 (Mus musculus) |
| --- | --- | --- | --- |
| CCCCCCCC#Cc1ccc([C@@H](O)[C@@H](N)CO)s1 | 19.9 µM |  |  |
| CCCCCCCCCC/C=C/c1csc([C@@H](O)[C@@H](N)CO)c1 | 5 µM |  |  |
| CCCCCCCCCCCCC/C=C/[C@@H](O)[C@@H](N)CO [SPHINGOSINE] | 6.7 µM | 23.4 µM | 0.31 mg ear-1 |
| CCCCCCCCCCC#Cc1csc([C@@H](O)[C@@H](N)CO)c1 | 10.8 µM | 23.7 µM | 0.23 mg ear-1 |
| CCCCCCCCC#Cc1cccc([C@@H](O)[C@@H](N)CO)n1 | 13.3 µM |  |  |
| CCCCCCCCCCC#Cc1ccc([C@@H](O)[C@@H](N)CO)s1 | 2.9 µM | 26.2 µM | 0.24 mg ear-1 |
| CCCCCCCCc1cccc([C@@H](O)[C@@H](N)CO)n1 | > 100 µM |  |  |
| CCCCCCCCCCc1cc([C@@H](O)[C@@H](N)CO)on1 | 43.9 µM |  |  |
| N[C@@H](CO)[C@H](O)c1ccc(C#CCCCCc2ccccc2)s1 | 36 µM |  |  |
| CCCCCCCCCC#Cc1cccc([C@@H](O)[C@@H](N)CO)n1 | 10 µM |  |  |
| CCCCCCCCCc1ccc([C@@H](O)[C@@H](N)CO)s1 | 10 µM |  |  |
| N[C@@H](CO)[C@H](O)c1cccc(C#CCCCCCc2ccccc2)n1 | 15.9 µM |  |  |
| CCCCCCCCCCC#Cc1csc([C@@H](O)[C@@H](N)CO)n1 |  | 15.2 µM |  |
| CCCCCCCCCC#Cc1ccc([C@@H](O)[C@@H](N)CO)s1 | 4.7 µM |  |  |

Second part, led by results:

| IC50 (Protein kinase C (PKC) [1]) | IC50 (Protein kinase C (PKC) [2]) | SMILES | ED50 (Mus musculus) |
| --- | --- | --- | --- |
|  | 24.1 µM | CCCCCCCCCCCOc1cccc([C@@H](O)[C@@H](N)CO)c1 |  |
| 30.5 µM |  | CCCCCCCCCCc1cccc([C@@H](O)[C@@H](N)CO)n1 |  |
| 3.7 µM | 17.3 µM | CCCCCCCCCCCCc1cccc([C@@H](O)[C@@H](N)CO)c1 |  |
| 9.1 µM |  | CCCCCCCCCCCCc1cc([C@@H](O)[C@@H](N)CO)on1 |  |
| 4.5 µM |  | CCCCCCCCCCCCCCCCc1cccc([C@@H](O)[C@@H](N)CO)n1 |  |
| 3.5 µM |  | CCCCCCCCCCCC#Cc1ccc([C@@H](O)[C@@H](N)CO)s1 |  |
| 9.7 µM |  | CCCCCCCCCC#Cc1cccc([C@@H](O)[C@@H](N)CO)c1 |  |
|  | 22.4 µM | CCCCCCCCCCCC(=O)c1csc([C@@H](O)[C@@H](N)CO)c1 |  |
| 10 µM |  | CCCCCCCCCCCc1cccc([C@@H](O)[C@@H](N)CO)n1 |  |
|  | 20.7 µM | CCCCCCCCCCCC(=O)c1cccc([C@@H](O)[C@@H](N)CO)c1 |  |
| 14 µM |  | CCCCCCCCCCCCc1ccc([C@@H](O)[C@@H](N)CO)s1 |  |
|  | 22.4 µM | CCCCCCCCCCCC(=O)c1ccc([C@@H](O)[C@@H](N)CO)s1 |  |
|  | 13.3 µM | CCCCCCCCCCCCc1csc([C@@H](O)[C@@H](N)CO)c1 |  |
| 10.9 µM |  | CCCCCCCCCCCCc1cccc([C@@H](O)[C@@H](N)CO)n1 |  |
|  | 34.5 µM | CCCCCCCCCCC#Cc1cc([C@@H](O)[C@@H](N)CO)cs1 |  |
| 2.7 µM | 22.2 µM | CCCCCCCCCCC#Cc1cccc([C@@H](O)[C@@H](N)CO)c1 | 0.34 mg ear-1 |
